Source: the NIST ThermoML archive (doi:10.1016/j.fluid.2011.12.029)
± gives the expanded uncertainty stated by the source.

Details: Liquid, Vibrating tube method

CCC[n+]1ccccc1Oc1ccc(Cl)c[n+]1CCOS(=O)(=O)[O-].F[B-](F)(F)F
Details	mass density [kg/m3]
283.15 K, 100 kPa	1264.92 ± 0.45
283.15 K, 5000 kPa	1266.85 ± 0.5
283.15 K, 10000 kPa	1269.01 ± 0.56
283.15 K, 15000 kPa	1270.98 ± 0.61
283.15 K, 20000 kPa	1273.05 ± 0.67
283.15 K, 25000 kPa	1274.97 ± 0.73
283.15 K, 30000 kPa	1276.87 ± 0.78
283.15 K, 35000 kPa	1278.73 ± 0.84
283.15 K, 40000 kPa	1280.58 ± 0.9
283.15 K, 45000 kPa	1282.38 ± 0.96
283.15 K, 50000 kPa	1284.12 ± 1
283.15 K, 55000 kPa	1285.76 ± 1.1
283.15 K, 60000 kPa	1287.38 ± 1.1
283.15 K, 65000 kPa	1289.03 ± 1.2
288.15 K, 100 kPa	1260.92 ± 0.45
288.15 K, 5000 kPa	1262.99 ± 0.5
288.15 K, 10000 kPa	1265.09 ± 0.55
288.15 K, 15000 kPa	1267.22 ± 0.61
288.15 K, 20000 kPa	1269.26 ± 0.66
288.15 K, 25000 kPa	1271.11 ± 0.72
288.15 K, 30000 kPa	1273.09 ± 0.78
288.15 K, 35000 kPa	1275.02 ± 0.83
288.15 K, 40000 kPa	1276.87 ± 0.89
288.15 K, 45000 kPa	1278.72 ± 0.95
288.15 K, 50000 kPa	1280.38 ± 1
288.15 K, 55000 kPa	1282.18 ± 1.1
288.15 K, 60000 kPa	1283.78 ± 1.1
288.15 K, 65000 kPa	1285.51 ± 1.2
293.15 K, 100 kPa	1257.14 ± 0.44
293.15 K, 5000 kPa	1259.28 ± 0.5
293.15 K, 10000 kPa	1261.4 ± 0.55
293.15 K, 15000 kPa	1263.43 ± 0.6
293.15 K, 20000 kPa	1265.5 ± 0.66
293.15 K, 25000 kPa	1267.47 ± 0.71
293.15 K, 30000 kPa	1269.5 ± 0.77
293.15 K, 35000 kPa	1271.32 ± 0.82
293.15 K, 40000 kPa	1273.23 ± 0.88
293.15 K, 45000 kPa	1275.01 ± 0.94
293.15 K, 50000 kPa	1276.8 ± 1
293.15 K, 55000 kPa	1278.62 ± 1.1
293.15 K, 60000 kPa	1280.22 ± 1.1
293.15 K, 65000 kPa	1281.96 ± 1.2
298.15 K, 100 kPa	1253.37 ± 0.44
298.15 K, 5000 kPa	1255.54 ± 0.49
298.15 K, 10000 kPa	1257.73 ± 0.54
298.15 K, 15000 kPa	1259.9 ± 0.6
298.15 K, 20000 kPa	1262.01 ± 0.65
298.15 K, 25000 kPa	1263.98 ± 0.71
298.15 K, 30000 kPa	1265.98 ± 0.76
298.15 K, 35000 kPa	1267.9 ± 0.82
298.15 K, 40000 kPa	1269.81 ± 0.87
298.15 K, 45000 kPa	1271.6 ± 0.93
298.15 K, 50000 kPa	1273.47 ± 0.99
298.15 K, 55000 kPa	1275.21 ± 1.1
298.15 K, 60000 kPa	1276.93 ± 1.1
298.15 K, 65000 kPa	1278.65 ± 1.2
303.15 K, 100 kPa	1249.77 ± 0.44
303.15 K, 5000 kPa	1252.02 ± 0.49
303.15 K, 10000 kPa	1254.17 ± 0.54
303.15 K, 15000 kPa	1256.38 ± 0.59
303.15 K, 20000 kPa	1258.37 ± 0.64
303.15 K, 25000 kPa	1260.46 ± 0.7
303.15 K, 30000 kPa	1262.48 ± 0.75
303.15 K, 35000 kPa	1264.47 ± 0.81
303.15 K, 40000 kPa	1266.35 ± 0.87
303.15 K, 45000 kPa	1268.13 ± 0.92
303.15 K, 50000 kPa	1269.94 ± 0.98
303.15 K, 55000 kPa	1271.81 ± 1
303.15 K, 60000 kPa	1273.55 ± 1.1
303.15 K, 65000 kPa	1275.21 ± 1.2
308.15 K, 100 kPa	1246.14 ± 0.44
308.15 K, 5000 kPa	1248.19 ± 0.48
308.15 K, 10000 kPa	1250.57 ± 0.53
308.15 K, 15000 kPa	1252.6 ± 0.59
308.15 K, 20000 kPa	1254.8 ± 0.64
308.15 K, 25000 kPa	1256.85 ± 0.69
308.15 K, 30000 kPa	1258.87 ± 0.75
308.15 K, 35000 kPa	1260.93 ± 0.8
308.15 K, 40000 kPa	1262.88 ± 0.86
308.15 K, 45000 kPa	1264.72 ± 0.91
308.15 K, 50000 kPa	1266.61 ± 0.97
308.15 K, 55000 kPa	1268.36 ± 1
308.15 K, 60000 kPa	1270.11 ± 1.1
308.15 K, 65000 kPa	1271.84 ± 1.1
313.15 K, 100 kPa	1242.44 ± 0.43
313.15 K, 5000 kPa	1244.75 ± 0.48
313.15 K, 10000 kPa	1247.02 ± 0.53
313.15 K, 15000 kPa	1249.22 ± 0.58
313.15 K, 20000 kPa	1251.35 ± 0.63
313.15 K, 25000 kPa	1253.46 ± 0.69
313.15 K, 30000 kPa	1255.5 ± 0.74
313.15 K, 35000 kPa	1257.51 ± 0.79
313.15 K, 40000 kPa	1259.52 ± 0.85
313.15 K, 45000 kPa	1261.48 ± 0.9
313.15 K, 50000 kPa	1263.42 ± 0.96
313.15 K, 55000 kPa	1265.2 ± 1
313.15 K, 60000 kPa	1267 ± 1.1
313.15 K, 65000 kPa	1268.66 ± 1.1
318.15 K, 100 kPa	1238.82 ± 0.43
318.15 K, 5000 kPa	1241.01 ± 0.48
318.15 K, 10000 kPa	1243.39 ± 0.53
318.15 K, 15000 kPa	1245.52 ± 0.58
318.15 K, 20000 kPa	1247.69 ± 0.63
318.15 K, 25000 kPa	1249.81 ± 0.68
318.15 K, 30000 kPa	1251.93 ± 0.73
318.15 K, 35000 kPa	1253.97 ± 0.79
318.15 K, 40000 kPa	1255.96 ± 0.84
318.15 K, 45000 kPa	1257.93 ± 0.9
318.15 K, 50000 kPa	1259.75 ± 0.95
318.15 K, 55000 kPa	1261.48 ± 1
318.15 K, 60000 kPa	1263.53 ± 1.1
318.15 K, 65000 kPa	1265.2 ± 1.1
323.15 K, 100 kPa	1235.3 ± 0.43
323.15 K, 5000 kPa	1237.63 ± 0.47
323.15 K, 10000 kPa	1239.98 ± 0.52
323.15 K, 15000 kPa	1242.24 ± 0.57
323.15 K, 20000 kPa	1244.44 ± 0.62
323.15 K, 25000 kPa	1246.62 ± 0.67
323.15 K, 30000 kPa	1248.63 ± 0.73
323.15 K, 35000 kPa	1250.7 ± 0.78
323.15 K, 40000 kPa	1252.76 ± 0.83
323.15 K, 45000 kPa	1254.69 ± 0.89
323.15 K, 50000 kPa	1256.63 ± 0.94
323.15 K, 55000 kPa	1258.52 ± 1
323.15 K, 60000 kPa	1260.31 ± 1.1
323.15 K, 65000 kPa	1262.15 ± 1.1
328.15 K, 100 kPa	1231.68 ± 0.42
328.15 K, 5000 kPa	1233.97 ± 0.47
328.15 K, 10000 kPa	1236.25 ± 0.52
328.15 K, 15000 kPa	1238.61 ± 0.57
328.15 K, 20000 kPa	1240.87 ± 0.62
328.15 K, 25000 kPa	1243.01 ± 0.67
328.15 K, 30000 kPa	1245.19 ± 0.72
328.15 K, 35000 kPa	1247.33 ± 0.77
328.15 K, 40000 kPa	1249.3 ± 0.82
328.15 K, 45000 kPa	1251.23 ± 0.88
328.15 K, 50000 kPa	1253.26 ± 0.93
328.15 K, 55000 kPa	1255.02 ± 0.99
328.15 K, 60000 kPa	1256.98 ± 1
328.15 K, 65000 kPa	1258.79 ± 1.1
333.15 K, 100 kPa	1228.25 ± 0.42
333.15 K, 5000 kPa	1230.56 ± 0.46
333.15 K, 10000 kPa	1232.96 ± 0.51
333.15 K, 15000 kPa	1235.23 ± 0.56
333.15 K, 20000 kPa	1237.65 ± 0.61
333.15 K, 25000 kPa	1239.91 ± 0.66
333.15 K, 30000 kPa	1241.9 ± 0.71
333.15 K, 35000 kPa	1244.07 ± 0.76
333.15 K, 40000 kPa	1246.16 ± 0.82
333.15 K, 45000 kPa	1248.15 ± 0.87
333.15 K, 50000 kPa	1250.14 ± 0.92
333.15 K, 55000 kPa	1252 ± 0.98
333.15 K, 60000 kPa	1253.93 ± 1
333.15 K, 65000 kPa	1255.7 ± 1.1
